Series [1] addresses T1, human mGluR4 (Homo sapiens, UniProt Q14833).
T1 construct: expressed in transfected cells
The series is described as follows: Fluorescent cell based Ca2+ mobilization assay (FLIPR) on HEK-293 cells expressing human mGluR4. To be noted: positive allosteric modulation, HEK-293 cells expressing hmGluR4, stimulated by EC25 glutamate; mean of at least three independent experiments in duplicate; read-out: Ca^2+ Flux* (mean EC50). Background: A change in cytosolic calcium serves as a functional read-out for many receptors and channels.

T1 sequence (Q14833 33-912): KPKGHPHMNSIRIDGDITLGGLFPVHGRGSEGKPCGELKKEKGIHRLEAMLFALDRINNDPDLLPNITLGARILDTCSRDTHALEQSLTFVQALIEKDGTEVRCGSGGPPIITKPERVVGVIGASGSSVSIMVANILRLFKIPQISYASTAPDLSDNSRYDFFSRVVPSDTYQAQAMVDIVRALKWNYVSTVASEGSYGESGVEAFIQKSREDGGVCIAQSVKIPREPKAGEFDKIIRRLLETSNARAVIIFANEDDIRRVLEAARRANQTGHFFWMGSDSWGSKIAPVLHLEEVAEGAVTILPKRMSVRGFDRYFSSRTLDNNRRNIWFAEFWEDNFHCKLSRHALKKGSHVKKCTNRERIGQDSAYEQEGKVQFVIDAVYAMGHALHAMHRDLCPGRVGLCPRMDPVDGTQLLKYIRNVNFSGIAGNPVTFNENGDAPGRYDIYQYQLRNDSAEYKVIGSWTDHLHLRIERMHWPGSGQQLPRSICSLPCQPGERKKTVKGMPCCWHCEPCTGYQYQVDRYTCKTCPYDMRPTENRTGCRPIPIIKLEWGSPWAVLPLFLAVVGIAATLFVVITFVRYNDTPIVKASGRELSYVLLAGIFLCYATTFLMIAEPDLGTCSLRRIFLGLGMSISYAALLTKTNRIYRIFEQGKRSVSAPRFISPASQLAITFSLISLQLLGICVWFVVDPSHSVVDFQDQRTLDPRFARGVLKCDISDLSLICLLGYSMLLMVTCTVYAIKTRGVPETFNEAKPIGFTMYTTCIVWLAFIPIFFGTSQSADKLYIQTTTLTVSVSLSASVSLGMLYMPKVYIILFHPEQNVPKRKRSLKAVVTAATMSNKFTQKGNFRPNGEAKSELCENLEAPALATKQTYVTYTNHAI

In the case of `Fc1cccc(Nc2nc3c(s2)CCN(CC2CC2)c2n[nH]cc2-3)n1` [Compound 1-40, 6-(Cyclopropylmethyl)-N-(6-fluoropyridin-2-yl)-4,5,6,8-tetrahydropyrazolo[3,4-b]thiazolo[4,5-d]azepin-2-amine], the melting point amounted to 297 °C. For the same molecule, in series [1], the EC50 was 100 to 1000 nM.

A word on the EC50: it is the concentration that produces a half-maximal response. Usually melting point stands for the temperature, or range, at which the solid turns liquid.
